We go through four molecules from patent publication US20150126467A1, “USE OF ALGINATE OLIGOMERS TO ENHANCE THE EFFECTS OF ANTIFUNGAL AGENTS” (AlgiIPharma AS, priority 2011, published 2015).

For series [1] the following is noted: cited from earlier work.
The subject of the next series is Candida albicans. Nature of the series: Robotic MIC assay with asthma/COPD medicaments (Example 5). The class given is cell-based. Conditions: for effect on growth of C. albicans: at the given concentrations, data not shown; for influence on the MIC values of nystatin or amphotericin B in combination with OligoG CF5/20: ipratropium bromide and salbutamol at 0.01 mM and 1 mM, budesonide at 0.01 mM, formoterol at 0.5 mM. The protocol:
A robotic MIC Assay was performed as follows. OligoG CF-5/20 were dissolved in medium (Mueller-Hinton broth or M19 broth depending on experiment) to 1.25 times of the desired assay concentrations (2, 6 and 10%). The antifungal agents under test were dissolved in medium without OligoG CF-5/20 and in medium with OligoG CF-5/20 at a concentration of 1.25 times the highest desired assay concentrations. For experiments where the effect of adding different concentrations of Na^+ was investigated, NaCl was dissolved in medium to the desired concentrations (10, 30 and 50 mM).
Two-fold serial dilutions of antifungal agents were made in medium with different concentrations of OligoG CF-5/20, and the solutions were placed in four parallel wells in Nunc 384-well micro plates (30 μl per well in Nunc 242757 microplates). A group of 8 wells with no addition of antifungal agents for each OligoG CF-5/20 concentration was included on each microplate as growth reference. To each well in the 384-well assay plates was added 7.5 μl of medium inoculated with a frozen stock culture of Candida albicans (strain CCUG 39343).
The micro plates were placed in plastic bags and incubated without shaking at 34° C. The optical density at 600 nm in the microwells was measured after approximately 13, 18, 24 and 34 hours of incubation, and the relative growth yield in each well was calculated based on the growth in the reference groups.
The robotic assay described in Example 1 was employed in this Example. […] The concentration utilized for the different components were based on information from Manocha et al. (2006).
In this assay only Mueller-Hinton broth was used since this is the medium specified for standardized MIC assays (Jorgensen et al., 1999).

Series [2] concerns Aspergillus flavus CCUG 28296. In words: Robotic MIC assay, Aspergillus (Example 4). The class given is cell-based. Conditions: Aspergillus flavus, CCUG23451 / CCUG28296, 48 h, Mueller-Hinton broth, read-out: Minimum Inhibitory Concentration (MIC). The procedure: (§1) Aspergillus sp. was grown at 30° C. for 96 h on YM-agar. Spores and aerial mycelium was cut out from the agar, suspended in 1 ml YM-broth and dispersed with glass beads (1 mm) in a mini bead beater for 2 min. Glycerol was added to the suspension to 10% and frozen at −80° C.
(§2) Each batch of frozen stock culture was then characterized in separate growth experiments using Mueller-Hinton broth to determine the minimum amount of inoculum giving satisfactory growth after 48 h under the conditions relevant for the MIC assay. This inoculation procedure is used in order to reduce day to day variation in bioassays.
(§3) Robotic minimum inhibitory concentration (MIC) assay was performed as follows. OligoG CF-5/20 was dissolved in medium (Mueller-Hinton broth) to 1.25 times of the desired assay concentrations (2, 6 and 10%). […].
(§4) Two-fold serial dilutions of antifungal agents were made in medium with different concentrations of OligoG CF-5/20, and the solutions were placed in four parallel wells in Nunc 384-well micro plates (30 μl per well in Nunc 242757 microplates). A group of 8 wells with no addition of antifungal agents for each OligoG CF-5/20 concentration was included on each micro plate as growth reference. Each well in the 384-well assay plates was added 7.5 μl of the MH medium inoculated with frozen stock culture of the relevant strains.
(§5) The microplates were placed in plastic bags and incubated without shaking at 34° C. The optical density at 600 nm in the microwells was measured after approximately 24 and 48 hours of incubation. […]

For series [3], the system named is Aspergillus fumigatus CCUG 17460. Nature of the series: Robotic MIC assay, Aspergillus (Example 4). The class given is cell-based. The conditions noted are these: Aspergillus fumigatus, CCUG17460, 48 h, Mueller-Hinton broth, read-out: Minimum Inhibitory Concentration (MIC). The procedure: as §1, §2, §3, §4, §5
Series [4] relates to Aspergillus niger CCUG 18919. In words: Robotic MIC assay, Aspergillus (Example 4). Conditions: Aspergillus niger, CCUG18919, 48 h, Mueller-Hinton broth, read-out: Minimum Inhibitory Concentration (MIC). The class given is cell-based. The procedure:
as §1, §2, §3, §4, §5

Series [5] has as its system various Aspergillus species. Nature of the series: Robotic MIC assay, summary over species (Example 4). The class given is cell-based. Conditions: Aspergillus species tested. The protocol:
as §1, §2, §3, §4, §5

Molecules are shown by their SMILES. Values after ≈ are worked out from the molar mass of the structure shown. Like-named read-outs stand apart in the source and are kept apart here. Some results are limits rather than exact numbers.

Consider `CCCC1O[C@@H]2C[C@H]3[C@@H]4CCC5=CC(=O)C=C[C@]5(C)[C@H]4[C@@H](O)C[C@]3(C)[C@]2(C(=O)CO)O1` (stereo partly shown) [budesonide], for which the solubility in water entry in series [1] is “limited solubility in water”.

Consider `CC(C)[N+]1(C)[C@@H]2CC[C@H]1C[C@@H](OC(=O)C(CO)c1ccccc1)C2.O.[Br-]` (stereo partly shown) [Ipratropium bromide, ipratropium bromide monohydrate], for which, in the series on Candida albicans, the “effect on growth of C. albicans” value was “did not affect growth” and the “influence on the MIC values of nystatin or amphotericin B in combination with OligoG CF5/20” value is recorded as “do not significantly influence”.

For `CC(C)(C)NCC(O)c1ccc(O)c(CO)c1` (stereo not shown) [salbutamol], in the series with Candida albicans, the “effect on growth of C. albicans” value was “did not affect growth” and the “influence on the MIC values of nystatin or amphotericin B in combination with OligoG CF5/20” value is “do not significantly influence”. Moreover, the solubility in water result in series [1] is “soluble in water”.

As for `C[C@@H](c1ncncc1F)[C@](O)(Cn1cncn1)c1ccc(F)cc1F` [Voriconazole, voriconazole], the MIC in series [2] (A. flavus CCUG 23451, 0% OligoG) was 0.0625 µg/mL (≈ 0.179 µM); in series [2] (A. flavus CCUG 23451, 2% OligoG) it was 0.0625 µg/mL (≈ 0.179 µM); in series [2] (A. flavus CCUG 23451, 6% OligoG) it was less than 0.0312 µg/mL; in series [2] (A. flavus CCUG 23451, 10% OligoG), less than 0.0312 µg/mL; in series [3] (A. fumigatus CCUG 17460, 0% OligoG), 0.125 µg/mL (≈ 0.358 µM); in series [3] (A. fumigatus CCUG 17460, 2% OligoG) it was 0.125 µg/mL (≈ 0.358 µM). For the same molecule, the MIC in series [3] (A. fumigatus CCUG 17460, 6% OligoG) is 0.0625 µg/mL (≈ 0.179 µM); in series [3] (A. fumigatus CCUG 17460, 10% OligoG), 0.0312 µg/mL (≈ 0.0895 µM); in series [4] (A. niger CCUG 18919, 0% OligoG), 0.25 µg/mL (≈ 0.716 µM); in series [4] (A. niger CCUG 18919, 2% OligoG), 0.0625 µg/mL (≈ 0.179 µM); in series [4] (A. niger CCUG 18919, 6% OligoG), less than 0.0312 µg/mL; in series [4] (A. niger CCUG 18919, 10% OligoG) it was less than 0.0312 µg/mL. The “effect of addition of OligoG CF-5/20 on MIC values” in series [5] is given as “reduction in MIC values”.
